Assay results published in patent US8293786B2 (Alltranz Inc., priority 2007, dated 2012).
“Also recorded” adds a separate entry of the source. Where a name gives a salt, the structure may show the parent alone.

Assays:
human abdominal skin [1] = assay: In vitro human skin permeation and skin disposition, flow-through diffusion cells (Example 1); format: in vitro ADME
Protocol: Flow through diffusion cells were used for the permeation studies. HEPES-buffered Hanks' balanced salts containing 40% (polyethylene glycol) PEG 400 with gentamicin was used for the receiver compartment. Donor solution was comprised of either 100% propylene glycol (PG) solution or a rubbed in gel formulation. […] Drug accumulation in the skin after a 24 or 36 h diffusion experiment was determined as μmol/g wet tissue weight.
(§1) The skin samples used in the following experiments were obtained from abdominal reduction surgery and dermatomed to a thickness of approximately 200 μm. The skin samples used herein were frozen at −20° C. for less than six months.
1 L of receiver fluid was prepared by measuring 1 L of nanopure water into a graduated cylinder. 90% of the water was added to an Erlenmeyer flask. Hanks' salts (1 bottle) were added to the water along with 5.96 g of HEPES and 0.35 g of sodium bicarbonate. The pH of the solution was adjusted with 1 N sodium hydroxide solution to pH 7.4. The remaining water was added and the receiver fluid was filtered through a 0.2μ filter (Millipore, Billerica, Mass.). 50 mg of gentamicin was added to the filtered receiver fluid and 400 mL of the receiver fluid was removed and replaced with 400 mL of PEG 400.
Two different formulations were used for charging the donor compartment. Drugs were made up in either 100% PG or a gel formulation. For the PG solution, approximately 50-120 mg of the appropriate drug was weighed into a glass silanized culture tube. The gel formulation resulted from the mixing of absolute ethanol, nanopure water, IPM, Carbopol® 980, 0.1 N aqueous sodium hydroxide solution and the respective drug.
Dermatomed skin harvested from abdominoplasty, stored at −20° C., was used for the experiments. A PermeGear flow-through (In-Line, Riegelsville, Pa.) diffusion cell system was used for the skin permeation studies.
(§2) Diffusion cells were kept at 32° C. with a circulating water bath. Human epidermal skin was arranged in the diffusion cell with stratum corneum (upper layer of skin) facing the donor compartment. Permeation area of the skin was 0.95 cm^2. Data was collected from a human skin donor with three to four diffusion cells per treatment.
Receiver solution was HEPES-buffered Hanks' balanced salts with gentamicin containing 40% PEG 400 at a pH of 7.4 and flow rate was adjusted to 0.8 mL/h. Each cell was charged with 0.050 mL of the respective drug formulation (donor solution) or with 0.035 mL of gel formulation which was rubbed into the skin for 15 sec with a Teflon coated rod. The formulation was applied to ensure complete coverage. Diffusion cells were covered with a cap for the duration of the study.
(§3) Samples were collected into scintillation vials in 3 h increments for either 24 h or 36 h. All the samples were stored at 4° C. until extracted. An aliquot (0.5 mL) of the diffusion sample was placed into a silanized HPLC vial and 0.5 mL of acetonitrile was added to the sample, capped and vortexed.
At the end of the experiment, the skin tissue was removed from the diffusion cell, rinsed with nanopure water, and blotted dry with a paper towel. The skin was tape stripped twice using book tape (Scotch™, 3M, St. Paul, Minn.) to remove drug formulation adhering to the tissue surface. The area of skin in contact with the drug was cut out, chopped up and placed in a pre-weighed scintillation vial. Ten mL of acetonitrile was added to the vial and drug was extracted from the skin by shaking at room temperature overnight. The following day a 0.1 mL aliquot was removed and diluted with an additional 0.9 mL of acetonitrile. The diluted sample was added to the silanized HPLC vial for analysis.
At the end of the experiment, a 0.01 mL aliquot of the PG donor solution was removed and added to a scintillation vial containing 10 mL of acetonitrile. The vials were vortexed and then sonicated for 15 min. An aliquot of 1 mL was removed and transferred into a silanized HPLC vial for analysis.

human abdominal skin [2] = assay: In vitro human skin permeation and skin disposition, flow-through diffusion cells (Examples 2, 2A, 2B); format: in vitro ADME; details: for 24 h cumulative amt / 24 h skin conc / Flux / Lag time / Flux enhancement: 40% aqueous PEG 400 receiver fluid; for Flux enhancement: total cannabidiol versus cannabidiol
Protocol: Flow through diffusion cells were used for the permeation studies. HEPES-buffered Hanks' balanced salts containing 40% PEG 400 with gentamicin or 40% aqueous PEG 400 with gentamicin were used for the receiver compartment. Donor solution was comprised of 90:8:2 PG:H2O:IPM solution or gel formulation. […] Drug accumulation in the skin after a 24, 30 or 42 h diffusion experiment was determined as μmol/g wet tissue weight.
as §1
One (1) L of receiver fluid was prepared by measuring 1 L of nanopure water into a graduated cylinder. 90% of the water was added to an Erlenmeyer flask. Hanks' salts (1 bottle) were added to the water along with 5.96 g of HEPES and 0.35 g of sodium bicarbonate. The pH of the solution was adjusted with 1 N sodium hydroxide solution to pH 7.4. The remaining water was added and the receiver fluid was filtered through a 0.2μ filter (Millipore, Billerica, Mass.). Fifty (50) mg of gentamicin was added to the filtered receiver fluid and 400 mL of the receiver fluid was removed and replaced with 400 mL of PEG 400.
The receiver fluid was prepared by measuring 600 mL of nanopure H2O into a graduated cylinder. The H2O was filtered through a 0.2μ filter (Millipore, Billerica, Mass.). Fifty (50) mg of gentamicin was added to the filtered H2O and 400 mL of PEG 400 was added.
The prodrugs were made up in a solution of 45:4:1 PG:H2O:IPM. For this solution, the appropriate amount of drug was weighed into a glass silanized culture tube and IPM was added, the 50 μL of PG to coat the drug, then an additional 247 μL PG was added and the donor solution was vortexed again. Finally 26 μL of water was added. The gel formulation resulted from the mixing of absolute ethanol, nanopure water, IPM, Carbopol® 980, 0.1 N sodium hydroxide solution and the respective drug.
The gel formulation was comprised of absolute ethanol, nanopure water, IPM, Carbopol® 980, 0.1 sodium hydroxide solution and respective drug. The anhydrous gel was comprised of absolute ethanol, PEG monoethyl ether 550, Klucel® hydroxypropylcellulose, and respective drug.
Dermatomed skin harvested from abdominoplasty, stored at −20° C., was used for the experiments. A PermeGear flow-through (In-Line, Hellertown, Pa.) diffusion cell system was used for the skin permeation studies.
as §2, with “The permeation” for “Permeation”, “The data” for “Data”, “three” for “three to four”
The receiver solution was HEPES-buffered Hanks' balanced salts with gentamicin containing 40% PEG 400 at a pH of 7.4 or 40% aqueous PEG 400 and flow rate was adjusted to 0.8 mL/h. Each cell was charged with 0.10 mL of the respective drug formulation (donor solution) or 50 μL of gel formulation which was rubbed into the skin for 15 sec with a Teflon coated rod. The formulation was applied to ensure complete coverage. […]. Diffusion cells were covered with a stopper or cap for the duration of the study.
as §3, with “24, 30,” for “24 h”, “42” for “36”
At the end of the experiment, the skin tissue was removed from the diffusion cell, rinsed with nanopure water, and blotted dry with a paper towel. The skin was tape stripped twice using book tape (Scotch™, 3M, St. Paul, Minn.) to remove drug formulation adhering to the tissue surface.

[3] = Table 3, in propylene glycol, prodrug applied
[4] = Table 4, in propylene glycol, prodrug applied
[5] = Table 5, in propylene glycol, prodrug applied
[6] = Table 19, gel formulation, CBD from applied prodrug
[7] = Table 19, gel formulation, as applied compound (CBD or intact prodrug)
[8] = Table 19, gel formulation, prodrug applied, as total cannabidiol equivalents
[9] = Table 21, gel formulation, CBD from applied prodrug
[10] = Table 21, gel formulation, as applied compound (CBD or intact prodrug)
[11] = Table 21, gel formulation, prodrug applied, as total cannabidiol equivalents
[12] = Table 23, gel formulation, CBD from applied prodrug
[13] = in an anhydrous gel formulation

## C=C(C)C1CCC(C)=CC1c1c(OC(=O)OCN(CC)CC)cc(CCCCC)cc1OC(=O)OCN(CC)CC (stereo not drawn) [ALL00102]
Human abdominal skin [1]; Example 1
  flux enhancement (in words): No flux enhancement
  form in which the prodrug permeated through the human skin: permeated through the human skin as cannabidiol
  found in the skin disposition (tissue) samples: Both cannabidiol and intact prodrug were found
  intact prodrug in the diffusion samples (receiver samples): No intact prodrug was found
  total cannabidiol in the skin compared to cannabidiol: higher
Human abdominal skin [1]; [3]
  24 h cumulative amt: 8.6 ± 6.3 nmol
  Flux: 0.6 ± 0.5 nmol/cm^2/h
Human abdominal skin [1]; [4]
  24 h cumulative amt: 9.1 ± 5.0 nmol
  Flux: 0.7 ± 0.3 nmol/cm^2/h
  Lag time: 11.0 ± 2.8 h
Human abdominal skin [1]; Table 4, in propylene glycol, prodrug applied, found in skin as CBD
  24 h skin conc: 18.9 ± 9.9 (CBD) μmol/g
Human abdominal skin [1]; Table 4, in propylene glycol, prodrug applied, found in skin as PD (prodrug)
  24 h skin conc: 73.4 ± 35.5 (PD) μmol/g
Human abdominal skin [1]; [5]
  24 h cumulative amt: 13.7 ± 18.6 nmol
  Flux: 0.3 ± 0.1 nmol/cm^2/h
  Lag time: 5.1 ± 0.0 h
Human abdominal skin [1]; Table 5, in propylene glycol, prodrug applied, found in skin as PD (prodrug)
  24 h skin conc: 183.1 ± 62.8 (PD) μmol/g
Human abdominal skin [1]; Table 9, in gel formulation
  24 h cumulative amt: 1.1 ± 0.4 nmol
  Flux: 0.05 ± 0.02 nmol/cm^2/h
  Lag time: 1.6 ± 1.6 h
Human abdominal skin [1]; Table 9, in gel formulation, as applied compound (CBD, or PD = intact prodrug)
  24 h skin conc: 22.9 ± 9.3 (PD) μmol/g
Human abdominal skin [1]; Table 9, in gel formulation, prodrug applied, found in skin as CBD
  24 h skin conc: 0.4 ± 0.3 (CBD) μmol/g
Human abdominal skin [1]; Table 10, in propylene glycol, as applied compound (CBD, or PD = intact prodrug)
  24 h skin conc: 31.3 ± 5.5 (PD) μmol/g

## C=C(C)[C@@H]1CCC(C)=C[C@H]1c1c(O)cc(CCCCC)cc1OC=O [ALL00146, CBD Formate]
Human abdominal skin [2]; [6]
  24 h cumulative amt: 10.7 ± 0.5 nmol
  24 h skin conc: 0.8 ± 0.1 µmol/g
  Flux: 0.8 ± 0.1 nmol/cm^2/h
  Lag time: 9.1 ± 0.9 h
Human abdominal skin [2]; [7]
  24 h cumulative amt: 4.0 ± 0.0 nmol
  24 h skin conc: 3.3 ± 0.5 µmol/g
  Flux: 0.3 ± 0.0 nmol/cm^2/h
  Lag time: 7.0 ± 0.0 h
Human abdominal skin [2]; [8]
  24 h cumulative amt: 12.7 ± 2.3 nmol
  24 h skin conc: 4.1 ± 0.4 µmol/g
  Flux: 0.9 ± 0.1 nmol/cm^2/h
  Lag time: 8.9 ± 1.1 h
Human abdominal skin [2]; Table 19, gel formulation
  Flux enhancement: 1.09
Human abdominal skin [2]; [9]
  24 h cumulative amt: 2.7 ± 1.4 nmol
  24 h skin conc: 3.7 ± 2.1 µmol/g
  Flux: 0.2 ± 0.1 nmol/cm^2/h
  Lag time: 9.8 ± 3.7 h
Human abdominal skin [2]; [10]
  24 h skin conc: 16.0 ± 9.8 µmol/g
Human abdominal skin [2]; [11]
  24 h cumulative amt: 2.7 ± 1.4 nmol
  24 h skin conc: 19.7 ± 11.9 µmol/g
  Flux: 0.2 ± 0.1 nmol/cm^2/h
  Lag time: 9.8 ± 3.7 h
Human abdominal skin [2]; Table 21, gel formulation
  Flux enhancement: 0.53
Human abdominal skin [2]; [12]
  24 h cumulative amt: 5.9 nmol
  Flux: 0.26 nmol/cm^2/h
  Lag time: 0.4 h
Human abdominal skin [2]; in gel formulation
  detected in the skin as: intact prodrug and cannabidiol; also recorded: small amount of cannabidiol with the remaining being prodrug
  flux compared to cannabidiol: did slightly increase the flux; also recorded: didn't increase the flux

## C=C(C)C1CCC(C)=CC1c1c(O)cc(CCCCC)cc1OC(=O)CN(C)C (stereo not drawn) [ALL00148, CBD N,N-dimethylglycinate]
Human abdominal skin [2]; [6]
  24 h skin conc: 2.4 ± 2.1 µmol/g
Human abdominal skin [2]; [7]
  24 h cumulative amt: 8.0 ± 1.8 nmol
  24 h skin conc: 20.8 ± 21.1 µmol/g
  Flux: 0.5 ± 0.1 nmol/cm^2/h
  Lag time: 7.6 ± 2.1 h
Human abdominal skin [2]; [8]
  24 h cumulative amt: 8.0 ± 1.8 nmol
  24 h skin conc: 23.2 ± 23.2 µmol/g
  Flux: 0.5 ± 0.1 nmol/cm^2/h
  Lag time: 7.6 ± 2.1 h
Human abdominal skin [2]; Table 19, gel formulation
  Flux enhancement: 0.63
Human abdominal skin [2]; in gel formulation
  detected in the skin as: mostly intact prodrug and small amounts of cannabidiol
  flux compared to cannabidiol: did not increase the flux
  lag time compared to cannabidiol: similar
  permeated through the skin as: intact prodrug only
  total skin concentrations compared to cannabidiol: higher

## C=C(C)C1CCC(C)=CC1c1c(O)cc(CCCCC)cc1OC(=O)CCN(C)C (stereo not drawn) [ALL00150, CBD 3-(dimethylamino)propionate]
Human abdominal skin [2]; [9]
  24 h skin conc: 7.9 ± 2.3 µmol/g
Human abdominal skin [2]; [10]
  24 h skin conc: 47.7 ± 3.0 µmol/g
Human abdominal skin [2]; [11]
  24 h skin conc: 55.6 ± 5.3 µmol/g
Human abdominal skin [2]; Table 22, anhydrous gel formulation, CBD from applied prodrug
  24 h skin conc: 1.1 ± 0.8 µmol/g
Human abdominal skin [2]; Table 22, anhydrous gel formulation, as applied compound (CBD or intact prodrug)
  24 h skin conc: 5.6 ± 3.1 µmol/g
Human abdominal skin [2]; Table 22, anhydrous gel formulation, prodrug applied, as total cannabidiol equivalents
  24 h skin conc: 6.7 ± 3.8 µmol/g
Human abdominal skin [2]; anhydrous gel versus ethanol based gel
  concentrations in the skin, anhydrous gel formulation compared to the ethanol based gel formulation: much lower
Human abdominal skin [2]; [13]
  detected in the skin as: ALL00150 and cannabidiol
  permeation through the skin: did not permeate through the skin
  total skin concentrations compared to cannabidiol: higher
Human abdominal skin [2]; in gel formulation
  detected in the skin as: primarily ALL00150 with a small amount of cannabidiol
  permeated through the skin as: did not permeate through the skin
  total skin concentrations compared to cannabidiol: higher
